Results: ChEMBL document CHEMBL3751766, “Synthesis and evaluation of atorvastatin esters as prodrugs metabolically activated by human carboxylesterases” (Bioorg Med Chem Lett, 2016)

What was measured:
Liver carboxylesterase 1 = biological target: T1, Liver carboxylesterase 1 (Homo sapiens, UniProt P23141); experiment: Prodrug activation in human liver microsomes assessed as CES1-mediated compound hydrolysis at […] after 90 mins by HPLC analysis; conditions: 1.5 h
T1 sequence (P23141 whole entry): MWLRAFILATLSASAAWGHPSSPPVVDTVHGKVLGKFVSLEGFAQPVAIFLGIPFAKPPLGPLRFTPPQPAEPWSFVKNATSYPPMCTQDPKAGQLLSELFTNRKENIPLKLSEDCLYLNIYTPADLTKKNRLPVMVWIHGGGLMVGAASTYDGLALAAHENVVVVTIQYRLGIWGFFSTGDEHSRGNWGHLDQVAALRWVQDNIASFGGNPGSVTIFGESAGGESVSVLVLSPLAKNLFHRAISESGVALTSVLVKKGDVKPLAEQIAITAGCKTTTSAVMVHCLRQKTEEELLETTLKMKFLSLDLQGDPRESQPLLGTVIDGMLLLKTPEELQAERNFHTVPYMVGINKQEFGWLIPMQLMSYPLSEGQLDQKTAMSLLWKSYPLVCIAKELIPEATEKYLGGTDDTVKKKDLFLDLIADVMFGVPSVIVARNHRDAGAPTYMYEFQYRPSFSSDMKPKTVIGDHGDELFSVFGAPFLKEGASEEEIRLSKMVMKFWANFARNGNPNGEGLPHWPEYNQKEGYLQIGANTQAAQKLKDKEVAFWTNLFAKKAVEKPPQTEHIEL

Cocaine esterase = biological target: T2, Cocaine esterase (Homo sapiens, UniProt O00748); experiment: Prodrug activation in human intestine microsomes assessed as CES2-mediated hydrolysis of compound at […] after 90 mins by HPLC analysis; conditions: 1.5 h
T2 sequence (O00748 whole entry): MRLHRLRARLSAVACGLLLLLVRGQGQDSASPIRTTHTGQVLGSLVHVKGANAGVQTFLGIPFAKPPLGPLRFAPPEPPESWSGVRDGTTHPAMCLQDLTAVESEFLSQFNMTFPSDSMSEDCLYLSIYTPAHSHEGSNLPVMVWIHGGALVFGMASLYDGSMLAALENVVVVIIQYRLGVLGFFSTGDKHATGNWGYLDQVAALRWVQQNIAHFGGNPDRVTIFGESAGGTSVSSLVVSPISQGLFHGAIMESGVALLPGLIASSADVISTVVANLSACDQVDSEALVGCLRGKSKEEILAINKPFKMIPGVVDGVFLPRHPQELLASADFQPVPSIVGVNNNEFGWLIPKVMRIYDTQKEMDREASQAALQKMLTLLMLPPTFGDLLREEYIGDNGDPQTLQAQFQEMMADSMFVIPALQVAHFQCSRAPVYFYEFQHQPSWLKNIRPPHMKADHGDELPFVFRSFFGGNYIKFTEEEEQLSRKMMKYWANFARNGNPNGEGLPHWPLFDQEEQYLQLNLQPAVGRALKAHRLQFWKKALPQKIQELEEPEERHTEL

[1] = Drug metabolism ratio of CES1 mediated compound hydrolysis in human liver microsomes to CES2-mediated compound hydrolysis in human intestine microsomes; format: ADME
[2] = Prodrug activation assessed as human carboxylesterase 1b-mediated compound hydrolysis at […] after 30 mins by HPLC analysis; conditions: isolated protein, 0.5 h
[3] = Prodrug activation assessed as human carboxylesterase1c-mediated compound hydrolysis at […] after 30 mins by HPLC analysis; conditions: isolated protein, 0.5 h
[4] = biological target: T3, Arylacetamide deacetylase (Homo sapiens, UniProt P22760); experiment: Prodrug activation assessed as human AADAC-mediated compound hydrolysis at […] after 30 mins by HPLC analysis; conditions: 0.5 h
T3 sequence (P22760 whole entry): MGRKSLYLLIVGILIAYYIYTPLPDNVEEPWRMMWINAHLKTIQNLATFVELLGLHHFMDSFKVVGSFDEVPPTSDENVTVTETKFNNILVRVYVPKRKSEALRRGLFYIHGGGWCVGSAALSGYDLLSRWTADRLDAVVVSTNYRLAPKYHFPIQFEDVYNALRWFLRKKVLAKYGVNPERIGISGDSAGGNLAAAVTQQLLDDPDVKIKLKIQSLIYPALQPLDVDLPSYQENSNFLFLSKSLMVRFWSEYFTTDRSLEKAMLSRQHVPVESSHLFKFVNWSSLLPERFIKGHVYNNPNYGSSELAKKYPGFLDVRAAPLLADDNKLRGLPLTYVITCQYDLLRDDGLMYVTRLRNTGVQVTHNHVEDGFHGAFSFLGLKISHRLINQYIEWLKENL

Drug metabolism (Liver carboxylesterase 1)	Drug metabolism (Cocaine esterase)	Ratio [1]	Drug metabolism [2]	Drug metabolism [3]	Drug metabolism [4]	Structure (SMILES)
metabolite_detected	metabolite_detected	5.7				CCCCOC(=O)C[C@H](O)C[C@H](O)CCn1c(-c2ccc(F)cc2)c(-c2ccccc2)c(C(=O)Nc2ccccc2)c1C(C)C
metabolite_detected	metabolite_detected	5.3				CCCCCCCCOC(=O)C[C@H](O)C[C@H](O)CCn1c(-c2ccc(F)cc2)c(-c2ccccc2)c(C(=O)Nc2ccccc2)c1C(C)C
metabolite_detected	metabolite_detected	4.9				CC(C)c1c(C(=O)Nc2ccccc2)c(-c2ccccc2)c(-c2ccc(F)cc2)n1CC[C@@H](O)C[C@@H](O)CC(=O)OC1CCCCC1
metabolite_detected	metabolite_detected	5.1	metabolite_detected	metabolite_detected	metabolite_detected	C=CCOC(=O)C[C@H](O)C[C@H](O)CCn1c(-c2ccc(F)cc2)c(-c2ccccc2)c(C(=O)Nc2ccccc2)c1C(C)C
metabolite_detected	metabolite_detected	30.5	metabolite_detected	metabolite_detected	metabolite_detected	COC(=O)C[C@H](O)C[C@H](O)CCn1c(-c2ccc(F)cc2)c(-c2ccccc2)c(C(=O)Nc2ccccc2)c1C(C)C
metabolite_detected	metabolite_detected	40.1				CCOC(=O)C[C@H](O)C[C@H](O)CCn1c(-c2ccc(F)cc2)c(-c2ccccc2)c(C(=O)Nc2ccccc2)c1C(C)C
metabolite_detected	metabolite_detected	1.9	metabolite_detected	metabolite_detected	metabolite_detected	CC(C)c1c(C(=O)Nc2ccccc2)c(-c2ccccc2)c(-c2ccc(F)cc2)n1CC[C@@H](O)C[C@@H](O)CC(=O)Oc1ccc(F)cc1
metabolite_notdetected	metabolite_notdetected	1.7				CC(C)c1c(C(=O)Nc2ccccc2)c(-c2ccccc2)c(-c2ccc(F)cc2)n1CC[C@@H]1C[C@@H](O)CC(=O)O1 [ATORVASTATIN LACTONE]
metabolite_detected	metabolite_detected	9.1				CC(C)c1c(C(=O)Nc2ccccc2)c(-c2ccccc2)c(-c2ccc(F)cc2)n1CC[C@@H](O)C[C@@H](O)CC(=O)OCc1ccccc1
metabolite_detected	metabolite_detected	4.4				CCCCCCCCCCOC(=O)C[C@H](O)C[C@H](O)CCn1c(-c2ccc(F)cc2)c(-c2ccccc2)c(C(=O)Nc2ccccc2)c1C(C)C
metabolite_detected	metabolite_detected	3.8				CC(C)c1c(C(=O)Nc2ccccc2)c(-c2ccccc2)c(-c2ccc(F)cc2)n1CC[C@@H](O)C[C@@H](O)CC(=O)Oc1ccccc1
metabolite_detected	metabolite_detected	3.4				COc1ccc(OC(=O)C[C@H](O)C[C@H](O)CCn2c(-c3ccc(F)cc3)c(-c3ccccc3)c(C(=O)Nc3ccccc3)c2C(C)C)cc1
